In the supplement of paper PMC10307832:

Columns and labels:
Experiment in all cases: relative viability (nuclei count vs DMSO), 5 days (fraction); higher = more cells survive
Doramapimod + Crizotinib = compound: Cc1ccc(-n2nc(C(C)(C)C)cc2NC(=O)Nc2ccc(OCCN3CCOCC3)c3ccccc23)cc1 [Doramapimod] + C[C@@H](Oc1cc(-c2cnn(C3CCNCC3)c2)cnc1N)c1c(Cl)ccc(F)c1Cl [Crizotinib] (partner 1 µM)
Outline: (§1)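 Medians of duplicate plates are given as relative viability. That measure is the nuclei count in treated wells divided by the count in vehicle wells. Counts were taken on 4× images of lung cancer cell lines in 1536-well plates, 5 days after pin-tool dosing the day after seeding with one drug alone or a fixed anchor-drug dose plus five library-drug doses (not always all listed) in √10 steps.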

IPA-3 + Phenformin = compound: C1=CC=C2C(=C1)C=CC(=C2SSC3=C(C=CC4=CC=CC=C43)O)O [IPA-3] + N=C(N)NC(=N)NCCc1ccccc1 [Phenformin] (partner 250 µM)
Outline: as §1

RAF265 + Bortezomib = compound: Cn1c(Nc2ccc(C(F)(F)F)cc2)nc2cc(Oc3ccnc(-c4ncc(C(F)(F)F)[nH]4)c3)ccc21 [RAF265] + CC(C)C[C@H](NC(=O)[C@H](Cc1ccccc1)NC(=O)c1cnccn1)B(O)O [Bortezomib] (partner 0.002 µM)
Outline: as §1

IPA-3 + Palbociclib = compound: C1=CC=C2C(=C1)C=CC(=C2SSC3=C(C=CC4=CC=CC=C43)O)O [IPA-3] + CC(=O)c1c(C)c2cnc(Nc3ccc(N4CCNCC4)cn3)nc2n(C2CCCC2)c1=O [Palbociclib] (partner 0.5 µM)
Outline: as §1

| Cell Line | relative viability (Doramapimod + Crizotinib; first compound 0.02 µM) | relative viability (Doramapimod + Crizotinib; first compound 0.06325 µM) | relative viability (Doramapimod + Crizotinib; first compound 0.2 µM) | relative viability (Doramapimod + Crizotinib; first compound 0.6325 µM) | relative viability (Doramapimod + Crizotinib; first compound 2 µM) | relative viability (IPA-3 + Phenformin; first compound 0.2 µM) | relative viability (IPA-3 + Phenformin; first compound 0.6325 µM) | relative viability (IPA-3 + Phenformin; first compound 20 µM) | relative viability (RAF265 + Bortezomib; first compound 0.01 µM) | relative viability (RAF265 + Bortezomib; first compound 0.03162 µM) | relative viability (RAF265 + Bortezomib; first compound 0.1 µM) | relative viability (RAF265 + Bortezomib; first compound 0.3162 µM) | relative viability (RAF265 + Bortezomib; first compound 1 µM) | relative viability (IPA-3 + Palbociclib; first compound 0.2 µM) | relative viability (IPA-3 + Palbociclib; first compound 0.6325 µM) | relative viability (IPA-3 + Palbociclib; first compound 2 µM) | relative viability (IPA-3 + Palbociclib; first compound 6.325 µM) | relative viability (IPA-3 + Palbociclib; first compound 20 µM) | relative viability (IPA-3 + Phenformin; first compound 2 µM) | relative viability (IPA-3 + Phenformin; first compound 6.325 µM) |
| --- | --- | --- | --- | --- | --- | --- | --- | --- | --- | --- | --- | --- | --- | --- | --- | --- | --- | --- | --- | --- |
| NCI-H1792 | 0.762 | 1.06 | 1.07 | 1.04 | 0.971 | 0.371 | 0.44 | 0.408 | 0.985 | 0.889 | 0.905 | 0.837 | 0.574 | 0.684 | 0.658 | 0.662 | 0.677 | 0.731 |  |  |
| NCI-H2087 | 0.982 | 0.888 | 0.922 | 0.908 | 0.988 | 0.596 | 0.412 | 0.466 | 0.772 | 0.718 | 0.804 | 0.621 | 0.714 | 0.263 | 0.207 | 0.22 | 0.219 | 0.283 | 0.555 | 0.476 |
| NCI-H661 | 1.15 | 1.07 | 1 | 0.964 | 1.03 | 0.31 | 0.266 | 0.272 | 0.87 | 0.649 | 0.862 | 0.657 | 0.403 | 0.406 | 0.434 | 0.389 | 0.435 | 0.366 | 0.293 | 0.259 |
| EMC-BAC-2 | 0.716 | 0.758 | 0.792 | 0.771 | 0.699 | 0.642 | 0.467 | 0.594 | 1.07 | 1 | 1.08 | 1.05 | 0.351 | 0.537 | 0.509 | 0.527 | 0.516 | 0.532 | 0.541 | 0.576 |
| NCI-H1355 | 0.981 | 1.08 | 1.11 | 1.04 | 1.03 | 0.471 | 0.448 | 0.482 | 1.26 | 1.19 | 1.05 | 1.09 | 0.804 | 0.445 | 0.395 | 0.386 | 0.405 | 0.424 | 0.476 | 0.44 |
| NCI-H23 | 0.685 | 0.435 | 0.488 | 0.539 | 0.595 | 0.819 | 0.781 | 0.734 | 1.21 | 0.937 | 0.606 | 0.621 | 0.353 | 0.477 | 0.4 | 0.486 | 0.486 | 0.542 | 0.855 | 0.773 |
| NCI-H1651 | 0.847 | 0.871 | 0.875 | 0.89 | 0.851 | 0.341 | 0.317 | 0.31 | 0.981 | 0.978 | 0.974 | 0.897 | 0.932 | 0.534 | 0.511 | 0.541 | 0.528 | 0.602 | 0.364 | 0.339 |
| NCI-H1975 | 1.05 | 0.944 | 0.897 | 0.973 | 0.96 | 0.43 | 0.385 | 0.381 | 0.46 | 0.342 | 0.334 | 0.322 | 0.229 | 0.843 | 0.555 | 0.642 | 0.54 | 0.569 | 0.43 | 0.429 |
| COR-L23 | 0.705 | 0.573 | 0.571 | 0.651 | 0.667 | 0.532 | 0.426 | 0.232 | 1.05 | 0.87 | 0.964 | 0.706 | 0.511 | 0.283 | 0.301 | 0.316 | 0.266 | 0.118 | 0.471 | 0.431 |
| HCC-44 | 0.884 | 0.856 | 0.755 | 0.771 | 0.772 | 0.232 | 0.245 | 0.184 | 0.862 | 0.818 | 0.9 | 0.957 | 0.873 | 0.966 | 1.02 | 0.979 | 0.948 | 0.934 | 0.176 | 0.234 |
| LOU-NH91 | 0.729 | 0.724 | 0.749 | 0.796 | 0.61 | 0.793 | 0.666 | 0.954 | 0.542 | 0.465 | 0.521 | 0.596 | 0.521 | 0.535 | 0.525 | 0.552 | 0.511 | 0.572 | 0.721 | 0.677 |
| NCI-H441 | 0.96 | 0.512 | 0.67 | 0.741 | 0.549 | 1 | 0.715 | 0.513 | 0.446 |  | 0.499 | 0.362 | 0.207 | 0.244 | 0.213 | 0.198 | 0.169 | 0.185 | 0.838 | 0.742 |
| NCI-H647 | 1.1 | 1.03 | 0.992 | 0.96 | 0.833 | 0.8 | 0.482 | 0.107 | 0.949 | 0.806 | 0.686 | 0.58 | 0.426 | 0.561 | 0.373 | 0.371 | 0.206 | 0.0359 | 0.48 | 0.371 |
| NCI-H1915 | 0.907 | 0.894 | 0.915 | 0.918 | 0.779 | 0.388 | 0.36 | 0.389 | 0.96 | 0.95 | 0.887 | 0.816 | 0.417 | 0.498 | 0.514 | 0.534 | 0.495 | 0.54 | 0.371 | 0.338 |
| NCI-H1734 | 0.665 | 0.639 | 0.589 | 0.659 | 0.495 | 0.394 | 0.371 | 0.368 | 0.937 | 0.724 | 0.696 | 0.7 | 0.469 | 0.366 | 0.19 | 0.359 | 0.345 | 0.361 | 0.371 | 0.412 |
| NCI-H1993 | 0.739 | 0.788 | 0.907 | 0.919 | 0.775 | 0.467 | 0.515 | 0.514 | 1.06 | 0.941 | 1.09 | 1.01 | 0.795 | 0.702 | 0.732 | 0.656 | 0.516 | 0.545 | 0.538 | 0.547 |
